Assay results from ChEMBL document CHEMBL1148131, “Efficacy of scopadulcic acid A against Plasmodium falciparum in vitro” (J Nat Prod, 2002).

Legend:
Format in all cases: functional, organism-based
Plasmodium falciparum [1] = assay: Antimalarial activity against multidrug-resistant Plasmodium falciparum TM91C235 after 24 hrs by [3H]hypoxanthine uptake
Plasmodium falciparum [2] = assay: Antimalarial activity against Plasmodium falciparum D6 after 24 hrs by [3H]hypoxanthine uptake
Plasmodium falciparum [3] = assay: Antimalarial activity against Plasmodium falciparum W2 after 24 hrs by [3H]hypoxanthine uptake

Structure (SMILES)	IC50 (Plasmodium falciparum [1])	IC50 (Plasmodium falciparum [2])	IC50 (Plasmodium falciparum [3])
C[C@]12CC[C@]3(C1)[C@H](CC2=O)C[C@@H](OC(=O)c1ccccc1)[C@H]1[C@@](CO)(C(=O)O)CCC[C@@]13C [SCOPADULCIC ACID A]	23 µM	27 µM	19 µM
OC(c1cc(C(F)(F)F)nc2c(C(F)(F)F)cccc12)C1CCCCN1 (centres undefined) [MEFLOQUINE]	0.059 µM		
